Broadly, the pIC50 is −log10 of the IC50, conventionally taken in molar units.

For 29 compounds, IC50 results are on record in patent US8642629B2, “Naphthylacetic acids” (Hoffmann-La Roche Inc., priority 2008, dated 2014).

pIC50: −log10 of the molar value.

The target of this test is T1, human CRTH2 (Homo sapiens, UniProt Q9Y5Y4).
T1 construct: expressed in transfected cells; host or cells: CHO-K1
T1 sequence (Q9Y5Y4 1-395): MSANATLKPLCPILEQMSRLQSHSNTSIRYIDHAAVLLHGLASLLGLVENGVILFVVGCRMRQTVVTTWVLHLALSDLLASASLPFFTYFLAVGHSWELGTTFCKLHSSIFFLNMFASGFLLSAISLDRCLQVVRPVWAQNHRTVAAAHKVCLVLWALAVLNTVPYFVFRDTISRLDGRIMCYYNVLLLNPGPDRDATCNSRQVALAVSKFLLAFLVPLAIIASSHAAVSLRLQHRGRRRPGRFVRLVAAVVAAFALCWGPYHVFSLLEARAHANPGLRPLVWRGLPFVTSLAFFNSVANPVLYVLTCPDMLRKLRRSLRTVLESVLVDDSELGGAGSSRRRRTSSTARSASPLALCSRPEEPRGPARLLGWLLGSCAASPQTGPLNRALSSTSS
The test can be described thus: Human CRTH2 Receptor Binding Assay (whole cell, [3H]ramatroban competition). The conditions noted are these: CHO-K1 cells expressing human CRTH2 and G-alpha16; 20 nM [3H]ramatroban; 1 hour, room temperature. From the text:
A whole cell receptor binding assay using [^3H]ramatroban as the competing radioactive ligand was employed to evaluate the compound binding activity to human CRTH2. The radioactive ligand [^3H]ramatroban was synthesized according to Sugimoto et. al. (Eur. J. Pharmacol. 524, 30-37, 2005) to a specific activity of 42 Ci/mmol.
A cell line stably expressing human CRTH2 was established by transfecting CHO-K1 cells with two mammalian expression vectors that harbored human CRTH2 and G-alpha16 cDNAs, respectively, using FuGene® 6 transfection reagent (from Roche). Stable clones expressing CRTH2 were selected by staining each clone with BM16 (BD Pharmingen™ from BD Biosciences, a division of Becton, Dickinson and Company), which is a rat monoclonal antibody to human CRTH2. The cells were maintained as monolayer cultures in Ham's F-12 medium containing 10% fetal bovine serum, 100 units/mL penicillin, 100 μg/mL streptomycin, 2 mM glutamine, 0.5 mg/mL G418 (geneticin) for CRTH2, and 0.2 mg/mL hygromycin-B (for G-alpha 16). For whole cell receptor binding assay, the monolayer cells were rinsed once with PBS (phosphate buffered saline), dissociated using ethylenediaminetetraacetate (Versene™ EDTA from Lonza Inc.), and suspended in PBS containing 10 mM MgCl2 and 0.06% BSA (bovine serum albumin) at 1.5×10^6 cells/mL.
The binding reactions (0.2 mL) were performed in 96-well plates at room temperature in PBS containing 1.5×10^5 cells, 10 mM MgCl2, 0.06% BSA, 20 nM [^3H]ramatroban, and test compound at various concentrations. After 1 hour of binding reactions, the cells were harvested on GF™/B filter microplates (microtiter plates with embedded glass fiber from PerkinElmer, Inc.) and washed 5 times with PBS using a Filtermate™ Harvester (a cell harvester that harvests and washes cells from microplates from PerkinElmer, Inc.). The radioactivities bound to the cells were determined using a microplate scintillation counter (TopCount® NXT, from PerkinElmer, Inc.) after adding 50 μL of Microscint™ 20 scintillation fluid (from PerkinElmer, Inc.) to each well of the filter plates. The radioactivity from non-specific binding was determined by replacing compound with 10 μM of 15(R)-15-methyl PGD2 (from Cayman Chemical Company) in the reaction mixtures. The radioactivity bound to the cells in the absence of compound (total binding) was determined by replacing compound with 0.25% of DMSO (dimethyl sulfoxide) in the reaction mixture. Specific binding data were obtained by subtracting the radioactivity of non-specific binding from each binding data.
The IC50 value is defined as the concentration of the tested compound that is required for 50% inhibition of total specific binding. In order to calculate the IC50 value, the percent inhibition data were determined for 7 concentrations for each compound. The percent inhibition for a compound at each concentration was calculated according to the following formula, [1−(specific binding in the presence of compound)/(total specific binding)]×100. The IC50 value was then obtained by fitting the percent inhibition data to a sigmoidal dose-response (4 parameter logistic) model in the XLfit® software Excel add-in program [from ID Business Solutions Ltd., model 205, where F(x)=(A+(B−A)/(1+((C/x)^D)))].
Consider `Cc1c(CC(=O)O)cc2ccc(F)cc2c1Oc1cc(F)c(S(C)(=O)=O)cc1F` [Example 2-15, [4-(2,5-difluoro-4-methanesulfonyl-phenoxy)-6-fluoro-3-methyl-naphthalen-2-yl]-acetic acid], for which the pIC50 is 8.59.
The result for `CCS(=O)(=O)c1ccc(Oc2cc(CC(=O)O)c(F)c3ccc(F)cc23)nc1` [Example 4-2, [1,6-difluoro-4-(5-ethanesulfonyl-pyridin-2-yloxy)-naphthalen-2-yl]-acetic acid] reads 7.67; that for `Cc1c(CC(=O)O)cc2ccc(Cl)cc2c1Oc1ccc(C#N)cc1` [Example 2-45, [6-chloro-4-(4-cyano-phenoxy)-3-methyl-naphthalen-2-yl]-acetic acid], 6.87.
Under `Cc1c(CC(=O)O)cc2ccc(F)cc2c1Oc1ncc(S(C)(=O)=O)cc1Br` [Example 2-36, [4-(3-bromo-5-methanesulfonyl-pyridin-2-yloxy)-6-fluoro-3-methyl-naphthalen-2-yl]-acetic acid] stands 10.70.
In turn, `Cc1c(CC(=O)O)cc2ccc(F)cc2c1Oc1ccc(S(=O)(=O)N2CCN(C)CC2)cc1` [Example 2-41, {6-fluoro-3-methyl-4-[4-(4-methyl-piperazine-1-sulfonyl)-phenoxy]-naphthalen-2-yl}-acetic acid] gave a pIC50 of 8.77.
The result for `CCS(=O)(=O)c1cnc(Oc2cc(CC(=O)O)cc3ccc(F)cc23)c(C)c1` [Example 1-12, [4-(5-ethanesulfonyl-3-methyl-pyridin-2-yloxy)-6-fluoro-naphthalen-2-yl]-acetic acid] reads 8.60; that for `Cc1c(CC(=O)O)cc2ccc(F)cc2c1Oc1ccc(S(=O)(=O)C(C)C)cc1` [Example 2-4, {6-fluoro-3-methyl-4-[4-(propane-2-sulfonyl)-phenoxy]-naphthalen-2-yl}-acetic acid], 8.55; that for `Cc1c(CC(=O)O)cc2ccc(F)cc2c1Nc1ccc(S(C)(=O)=O)cc1` [Example 8-2, [6-fluoro-4-(4-methanesulfonyl-phenylamino)-3-methyl-naphthalen-2-yl]-acetic acid], 8.59.
Under `O=C(O)Cc1cc(Oc2ccc(S(=O)(=O)C3CC3)cc2)c2cc(F)ccc2c1` [Example 1-5, [4-(4-cyclopropanesulfonyl-phenoxy)-6-fluoro-naphthalen-2-yl]-acetic acid] stands 8.03; under `CS(=O)(=O)c1ccc(Oc2cc(CC(=O)O)c(F)c3ccc(F)cc23)nc1` [Example 4-1, [1,6-difluoro-4-(5-methanesulfonyl-pyridin-2-yloxy)-naphthalen-2-yl]-acetic acid], 8.10.
The result for `CCS(=O)(=O)c1ccc(Oc2cc(CC(=O)O)cc3ccc(F)cc23)c(C)c1` [Example 1-8, [4-(4-ethanesulfonyl-2-methyl-phenoxy)-6-fluoro-naphthalen-2-yl]-acetic acid] reads 8.48; that for `CCc1c(CC(=O)O)cc2ccc(F)cc2c1Oc1ccc(S(=O)(=O)CC)cn1` [Example 19-1], 7.76; that for `Cc1c(CC(=O)O)cc2ccc(F)cc2c1Oc1ccc(S(=O)(=O)N2CCCC2)cc1` [Example 2-38, {6-fluoro-3-methyl-4-[4-(pyrrolidine-1-sulfonyl)-phenoxy]-naphthalen-2-yl}-acetic acid], 8.66.
In turn, `Cc1c(CC(=O)O)cc2ccc(F)cc2c1Oc1ccc(S(=O)(=O)N(C)C)cc1` [Example 2-37, [4-(4-dimethylsulfamoyl-phenoxy)-6-fluoro-3-methyl-naphthalen-2-yl]-acetic acid] showed a pIC50 of 8.72.
Under `Cc1ccc(S(=O)(=O)c2ccc(Oc3c(C)c(CC(=O)O)cc4ccc(F)cc34)cc2)cc1` [Example 2-29, {6-fluoro-3-methyl-4-[4-(toluene-4-sulfonyl)-phenoxy]-naphthalen-2-yl}-acetic acid] stands 8.55.
With `CS(=O)(=O)c1ccc(Nc2cc(CC(=O)O)cc3ccc(F)cc23)cc1` [Example 8-1, [6-fluoro-4-(4-methanesulfonyl-phenylamino)-naphthalen-2-yl]-acetic acid], the pIC50 was 8.48.
The result for `CCS(=O)(=O)c1ccc(Oc2c(F)c(CC(=O)O)cc3ccc(F)cc23)nc1` [Example 5-1, [4-(5-ethanesulfonyl-pyridin-2-yloxy)-3,6-difluoro-naphthalen-2-yl]-acetic acid] reads 8.51; that for `CCS(=O)(=O)c1ccc(Oc2cc(CC(=O)O)cc3ccc(Br)cc23)nc1` [Example 12-1, [6-Bromo-4-(5-ethanesulfonyl-pyridin-2-yloxy)-naphthalen-2-yl]-acetic acid], 8.28; that for `CCS(=O)(=O)c1ccc(Oc2c(C)c(C(C)C(=O)O)cc3ccc(F)cc23)nc1` (centres unmarked) [Example 22-1, 2-[4-(5-Ethanesulfonyl-pyridin-2-yloxy)-6-fluoro-3-methyl-naphthalen-2-yl]-propionic acid], 6.42.
On to `CCS(=O)(=O)c1ccc(Oc2c(C)c(CC(=O)O)cc3ccc(F)cc23)c(Cl)c1` [Example 2-21, [4-(2-chloro-4-ethanesulfonyl-phenoxy)-6-fluoro-3-methyl-naphthalen-2-yl]-acetic acid], for which the pIC50 was 8.62.
Under `COc1ccc(S(=O)(=O)c2ccc(Oc3c(C)c(CC(=O)O)cc4ccc(F)cc34)cc2)cc1` [Example 2-30, {6-fluoro-4-[4-(4-methoxy-benzenesulfonyl)-phenoxy]-3-methyl-naphthalen-2-yl}-acetic acid] stands 8.57; under `Cc1cc(S(C)(=O)=O)cnc1Oc1cc(CC(=O)O)cc2ccc(F)cc12` [Example 1-10, [6-fluoro-4-(5-methanesulfonyl-3-methyl-pyridin-2-yloxy)-naphthalen-2-yl]-acetic acid], 8.48; under `CCCS(=O)(=O)c1ccc(Oc2c(C)c(CC(=O)O)cc3ccc(F)cc23)cc1` [Example 2-22, {6-fluoro-3-methyl-4-[4-(propane-1-sulfonyl)-phenoxy]-naphthalen-2-yl}-acetic acid], 8.62.
`C=Cc1c(CC(=O)O)cc2ccc(F)cc2c1Oc1ccc(S(=O)(=O)CC)cn1` [Example 17-1, [4-(5-Ethanesulfonyl-pyridin-2-yloxy)-6-fluoro-3-vinyl-naphthalen-2-yl]-acetic acid] gave a negative-log IC50 (pIC50) of 7.90.
Consider `CCS(=O)(=O)c1ccc(Oc2cc(CC(=O)O)cc3ccc(C)cc23)nc1` [Example 13-1, [4-(5-Ethanesulfonyl-pyridin-2-yloxy)-6-methyl-naphthalen-2-yl]-acetic acid], for which the negative-log IC50 (pIC50) was 7.13.
Under `Cc1c(CC(=O)O)cc2ccccc2c1Oc1ccc(S(C)(=O)=O)cc1` [Example 3-2, [4-(4-methanesulfonyl-phenoxy)-3-methyl-naphthalen-2-yl]-acetic acid] stands 8.33; under `Cc1cc(S(C)(=O)=O)ccc1Oc1cc(CC(=O)O)cc2ccc(F)cc12` [Example 1-6, [6-fluoro-4-(4-methanesulfonyl-2-methyl-phenoxy)-naphthalen-2-yl]-acetic acid], 8.15.
The result for `Cc1cc(S(C)(=O)=O)ccc1Oc1c(C)c(CC(=O)O)cc2ccc(Cl)cc12` [Example 2-9, [6-chloro-4-(4-methanesulfonyl-2-methyl-phenoxy)-3-methyl-naphthalen-2-yl]-acetic acid] reads 8.57; that for `CCS(=O)(=O)c1ccc(Oc2cc(CC(=O)O)cc3ccc(C(F)(F)F)cc23)nc1` [Example 1-16, [4-(5-Ethanesulfonyl-pyridin-2-yloxy)-6-trifluoromethyl-naphthalen-2-yl]-acetic acid], 7.72.
